Experimental data: US7759345B2, “Antitumoral derivatives of ET-743” (priority 2001, dated 2010)
Where two headings read alike, the source gives them in different places.

How the values were obtained:
A-549 [1] = assay: Inhibition of cell growth by counting cells, A-549; type: cell-based, human; settings: Homo sapiens, A549, 72 h; three days of incubation; read-out: IC50 (molar) A-549
Method in brief: (§1)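 Counts are net cells per well, averaged from duplicate wells, obtained by Coulter counting after trypsinization following 72 h of exposure at 37 °C. Seeding was 1×10^4 cells per well in EMEM/5% FCS with varied sample concentrations, alongside untreated growth controls. IC50 values derive from dose-response curves of % growth.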

MEL-28 = assay: Inhibition of cell growth by counting cells, MEL-28; type: cell-based, human; settings: Homo sapiens, SK-MEL-28, 72 h; three days of incubation; read-out: IC50 (molar) MEL-28
Method in brief: as §1

P-388 = assay: Inhibition of cell growth by counting cells, P-388; type: cell-based, mouse; settings: Mus musculus, P388, 72 h; three days of incubation; read-out: IC50 (molar) P-388
Method in brief: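 IC50 is the sample concentration halving growth, taken from dose-response curves of cell counts (Coulter counter, duplicate wells) relative to drug-free cultures. P-388 (DBA/2 mouse lymphoid neoplasm) cells plated at 1×10^4 per well in EMEM with 5% FCS plus test sample.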

HT-29 [2] = assay: Inhibition of cell growth by counting cells, HT-29; type: cell-based, human; settings: Homo sapiens, HT-29, 72 h; three days of incubation; read-out: IC50 (molar) HT-29
Method in brief: as §1

SK-MEL-28 = assay: Inhibition of cells growth by colorimetric assay (SRB), SK-MEL-28; type: cell-based; settings: MEL-28, SRB, 48 hours exposure
Method in brief: (§2)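 Using sulforhodamine B, cell growth and viability are quantified after a 48 h drug exposure of cells maintained in RPMI 1640/10% FBS at 37 °C, 5% CO2. Concentrations span 10 to 10^−8 μg/ml; optical density is read at 490 nm.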

SK-BR-3 = assay: Inhibition of cells growth by colorimetric assay (SRB), SK-BR-3; type: cell-based; settings: SK-BR3, SRB, 48 hours exposure
Method in brief: as §2

DU-145 = assay: Inhibition of cells growth by colorimetric assay (SRB), DU-145; type: cell-based; settings: DU-145, SRB, 48 hours exposure
Method in brief: as §2

HMEC1 = assay: Inhibition of cells growth by colorimetric assay (SRB), HMEC1; type: cell-based; settings: HMEC-1, SRB, 48 hours exposure
Method in brief: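 First, cells were plated at 5×10^3 per well and left 18 h to attach. Next, compound was added over 10 to 10^−8 μg/ml for 48 h. Finally, cells were TCA-fixed, SRB-stained and absorbance read at 490 nm.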

LoVo = assay: Inhibition of cells growth by colorimetric assay (SRB), LoVo; type: cell-based; settings: LOVO, SRB, 48 hours exposure
Method in brief: as §2

K-562 = assay: Inhibition of cells growth by colorimetric assay (SRB), K-562; type: cell-based; settings: K-562, SRB, 48 hours exposure
Method in brief: as §2

SK-OV-3 = assay: Inhibition of cells growth by colorimetric assay (SRB), SK-OV-3; type: cell-based; settings: SK-OV3, SRB, 48 hours exposure
Method in brief: as §2

IGROV-ET = assay: Inhibition of cells growth by colorimetric assay (SRB), IGROV-ET; type: cell-based; settings: IGROV-ET, SRB, 48 hours exposure
Method in brief: as §2

HT-29 [3] = assay: Inhibition of cells growth by colorimetric assay (SRB), HT-29; type: cell-based; settings: SRB, 48 hours exposure; for HT-29 TGI / GI50: HT-29; for GI50: read-out: HT-29 GI50; for LC50 (concentration for 50% cell killing): read-out: HT-29 LC50, HT-29
Method in brief: as §2

IGROV-1 = assay: Inhibition of cells growth by colorimetric assay (SRB), IGROV-1; type: cell-based; settings: IGROV, SRB, 48 hours exposure
Method in brief: as §2

PANC-1 = assay: Inhibition of cells growth by colorimetric assay (SRB), PANC-1; type: cell-based; settings: PANC-1, SRB, 48 hours exposure
Method in brief: as §2

LNCaP = assay: Inhibition of cells growth by colorimetric assay (SRB), LNCaP; type: cell-based; settings: LNCAP, SRB, 48 hours exposure
Method in brief: as §2

A-549 [4] = assay: Inhibition of cells growth by colorimetric assay (SRB), A-549; type: cell-based; settings: SRB, 48 hours exposure
Method in brief: as §2

LoVo-Dox = assay: Inhibition of cells growth by colorimetric assay (SRB), LoVo-Dox; type: cell-based; settings: LOVO-DOX, SRB, 48 hours exposure
Method in brief: as §2

[5] = Homo sapiens, A549, 48 h, A-549, read-out: A-549 GI50
[6] = Homo sapiens, A549, 48 h, read-out: A-549 LC50, A-549

Source text for Heart: (§3) Toxicity was asssessed by the methods reported in Toxicology in Vitro, 15 (2001) 571-577, J. Luber Narod et al.: “Evaluation of the use of in vitro methodolodies as tools for screening new compounds for potential in vivo toxicity”.
Source text for Kidney: as §3
Source text for Liver: as §3
Source text for Myelo: as §3
Source text for Skeletal: as §3

COc1cc2c(cc1OC(C)=O)CCN[C@]21CS[C@@H]2c3c(OC(C)=O)c(C)c4c(c3[C@H](COC1=O)N1C2[C@H]2c3c(cc(C)c(OC)c3O)C[C@@H]([C@@H]1O)N2C)OCO4 (some centres unmarked) [Compound 57]
Toxicity Data Heart (Heart): 3.48E-09
Toxicity Data Kidney (Kidney): 3.35E-09
Toxicity Data Liver (Liver): 4.66E-09
IC50 (A-549 [1]): 0.149 nM
Toxicity Data Myelo (Myelo): 1.85E-08
IC50 (MEL-28): 0.149 nM
IC50 (P-388): 0.149 nM
IC50 (HT-29 [2]): 0.149 nM

COc1cc2c(cc1OC(=O)Cc1cc(=O)oc3cc(N(C)C)ccc13)CCN[C@]21CS[C@@H]2c3c(OC(C)=O)c(C)c4c(c3[C@H](COC1=O)N1C2[C@H]2c3c(cc(C)c(OC)c3OC(=O)Cc3cc(=O)oc5cc(N(C)C)ccc35)C[C@@H]([C@@H]1O)N2C)OCO4 (some centres unmarked) [Compound 78]
MEL-28 TGI (SK-MEL-28): 4.48E-09
GI50 (SK-MEL-28; read-out: MEL-28 GI50): 2.15 nM
CC50 (SK-MEL-28; read-out: MEL-28 LC50): 16.9 nM
Toxicity Data Heart (Heart): 8.19E-07
SK-BR3 TGI (SK-BR-3): 1.70E-08
GI50 (SK-BR-3; read-out: SK-BR3 GI50): 4.31 nM
CC50 (SK-BR-3; read-out: SK-BR3 LC50): 63.3 nM
DU-145 TGI (DU-145): 8.52E-09
GI50 (DU-145; read-out: DU-145 GI50): 3.21 nM
Toxicity Data Kidney (Kidney): 2.59E-07
HMEC-1 TGI (HMEC1): 2.35E-07
GI50 (HMEC1; read-out: HMEC-1 GI50): 28.3 nM
Toxicity Data Liver (Liver): 5.88E-08
LOVO TGI (LoVo): 2.83E-08
GI50 (LoVo; read-out: LOVO GI50): 10.7 nM
LC50 (concentration for 50% cell killing) (LoVo; read-out: LOVO LC50): 74.3 nM
K-562 TGI (K-562): 2.56E-09
GI50 (K-562; read-out: K-562 GI50): 1.24 nM
LC50 (50% cell killing) (K-562; read-out: K-562 LC50): 7.5 nM
SK-OV3 TGI (SK-OV-3): 6.27E-08
GI50 (SK-OV-3; read-out: SK-OV3 GI50): 3.79 nM
IGROV-ET TGI (IGROV-ET): 7.42E-07
GI50 (IGROV-ET; read-out: IGROV-ET GI50): 114 nM
HT-29 TGI (HT-29 [3]): 1.10E-07
GI50 (HT-29 [3]): 17.1 nM
IGROV TGI (IGROV-1): 6.27E-09
GI50 (IGROV-1; read-out: IGROV GI50): 2.38 nM
CC50 (IGROV-1; read-out: IGROV LC50): 53.9 nM
PANC-1 TGI (PANC-1): 3.24E-08
GI50 (PANC-1; read-out: PANC-1 GI50): 5.42 nM
LC50 (concentration for 50% net cell kill) (PANC-1; read-out: PANC-1 LC50): 4900 nM
LNCAP TGI (LNCaP): 4.05E-09
GI50 (LNCaP; read-out: LNCAP GI50): 2.74 nM
CC50 (LNCaP; read-out: LNCAP LC50): 5.99 nM
TGI A-549 (A-549 [4]; A-549): 1.99E-08
GI50 (A-549 [4]; A-549, read-out: GI50 A-549): 9.59 nM
LC50 (concentration for 50% cell killing) (A-549 [4]; read-out: A-549 LC50, A-549): 41.1 nM
LOVO-DOX TGI (LoVo-Dox): 8.77E-07
GI50 (LoVo-Dox; read-out: LOVO-DOX GI50): 88.5 nM
Toxicity Data Skeletal (Skeletal): 1.96E-08

C=COC(=O)Oc1cc2c(cc1OC)[C@@]1(CS[C@@H]3c4c(OC(C)=O)c(C)c5c(c4[C@H](COC1=O)N1C3[C@H]3c4c(cc(C)c(OC)c4OC(=O)OC=C)C[C@@H]([C@@H]1O)N3C)OCO5)NCC2 (some centres unmarked) [Compound 92]
Toxicity Data Heart (Heart): 2.80E-08
Toxicity Data Kidney (Kidney): 1.35E-08
Toxicity Data Liver (Liver): 2.30E-08
Toxicity Data Myelo (Myelo): 1.92E-08
HT-29 TGI (HT-29 [3]): 1.11E-09
GI50 (HT-29 [3]; Homo sapiens, HT-29, 48 h): 1.11 nM
LC50 (concentration for 50% cell killing) (HT-29 [3]; Homo sapiens, HT-29, 48 h): 55.5 nM
A-549 TGI (A-549 [4]; A-549): 7.77E-09
GI50 (A-549 [4]; [5]): 3.33 nM
LC50 (concentration for 50% cell killing) (A-549 [4]; [6]): 33.3 nM
Toxicity Data Skeletal (Skeletal): 1.21E-08

C=COC(=O)Oc1cc2c(cc1OC)[C@@]1(CS[C@@H]3c4c(OC(C)=O)c(C)c5c(c4[C@H](COC1=O)N1C3[C@H]3c4c(cc(C)c(OC)c4OC(=O)OC=C)C[C@@H]([C@@H]1O)N3C)OCO5)N(C(=O)OC=C)CC2 (some centres unmarked) [Compound 99]
Toxicity Data Heart (Heart): 1.13E-07
Toxicity Data Kidney (Kidney): 2.56E-08
Toxicity Data Liver (Liver): 4.80E-08
Toxicity Data Myelo (Myelo): 1.45E-07
HT-29 TGI (HT-29 [3]): 1.03E-07
GI50 (HT-29 [3]; Homo sapiens, HT-29, 48 h): 34.3 nM
LC50 (concentration for 50% cell killing) (HT-29 [3]; Homo sapiens, HT-29, 48 h): 10300 nM
A-549 TGI (A-549 [4]; A-549): 9.96E-08
GI50 (A-549 [4]; [5]): 43.5 nM
LC50 (concentration for 50% cell killing) (A-549 [4]; [6]): 10300 nM
Toxicity Data Skeletal (Skeletal): 9.71E-08

CCCC(=O)Oc1c(C)c2c(c3c1[C@H]1SC[C@]4(NCCc5cc(O)c(OC)cc54)C(=O)OC[C@@H]3N3C1[C@H]1c4c(cc(C)c(OC)c4O)C[C@@H]([C@@H]3O)N1C)OCO2 (some centres unmarked) [Compound 163]
Toxicity Data Heart (Heart): 4.80E-07
Toxicity Data Kidney (Kidney): 6.33E-07
Toxicity Data Liver (Liver): 9.80E-07
Toxicity Data Myelo (Myelo): 2.38E-07
HT-29 TGI (HT-29 [3]): 1.14E-09
GI50 (HT-29 [3]; Homo sapiens, HT-29, 48 h): 0.38 nM
LC50 (concentration for 50% cell killing) (HT-29 [3]; Homo sapiens, HT-29, 48 h): 3.8 nM
A-549 TGI (A-549 [4]; A-549): 2.53E-09
GI50 (A-549 [4]; [5]): 0.38 nM
LC50 (concentration for 50% cell killing) (A-549 [4]; [6]): 8.86 nM
Toxicity Data Skeletal (Skeletal): 2.53E-06

C=CCOC(=O)Oc1c(C)c2c(c3c1[C@H]1SC[C@]4(NCCc5cc(O)c(OC)cc54)C(=O)OC[C@@H]3N3C1[C@H]1c4c(cc(C)c(OC)c4O)C[C@@H]([C@@H]3O)N1C)OCO2 (some centres unmarked) [Compound 165]
Toxicity Data Heart (Heart): 2.79E-08
Toxicity Data Kidney (Kidney): 1.89E-08
Toxicity Data Liver (Liver): 1.68E-08
Toxicity Data Myelo (Myelo): 2.87E-08
HT-29 TGI (HT-29 [3]): 3.73E-10
GI50 (HT-29 [3]; Homo sapiens, HT-29, 48 h): 0.249 nM
LC50 (concentration for 50% cell killing) (HT-29 [3]; Homo sapiens, HT-29, 48 h): 0.995 nM
A-549 TGI (A-549 [4]; A-549): 3.73E-10
GI50 (A-549 [4]; [5]): 0.124 nM
LC50 (concentration for 50% cell killing) (A-549 [4]; [6]): 1.24 nM
Toxicity Data Skeletal (Skeletal): 1.47E-08
